Ends that are not written are not given here.
System: peripheral blood mononuclear cells (PBMC)
Assay: MTT cytotoxicity assay
Type: cell-based
Settings: stimulated PBMC, incubated for 3 days, high concentrations, listed as monomeric PAP85-120
Method: To determine possible cytotoxic effects of PAP85-120 fibrils, serial dilutions of fibrils were added to stimulated peripheral blood mononuclear cells (PBMC) and incubated for 3 days (see example 8). Thereafter 10 µl of a 5 mg/ml MTT (Sigma; # M2128) solution was added and cells were incubated for 4 h at 37°C. In living cells mitochondrial dehydrogenases […] the yellow MTT salt to blue formazan crystals (Schiff et al.; 1985). After dissolving the crystals in 1:1 Ethanol/DMSO, samples containing living cells appear blue whereas samples from dead cells are clear. Optical density (OD) was measured at 560/650 nm using a photometer (Molecular Devices).
Fig. 5: PAP85 is non cytotoxic. Peripheral blood mononuclear cells (PBMC) were stimulated with phytohemagglutinine (2 µg/ml) and Interleukin 2 (10 µg/ml) for three days. Thereafter cells were sown out in 96 well dishes containing the indicated concentrations of freshly dissolved monomeric PAP85 or fibrillar PAP85 and incubated for 3 days. Cytotoxicity was determined by detecting dehydrogenase activity in living cells using the MTT assay. Values represent average values +/- SD derived from triplicates.

## IRKRYRKFLNESYKHEQVYIRSTDVDRTLMSAMTNL [freshly dissolved PAP85-120]
  cell viability / cytotoxic effects: do not exert cytotoxic effects

From patent EP2071024A1, “Peptides of human prostatic acid phosphatase enhancing viral infectivity” (Pharis Biotec GmbH, priority 2007, dated 2009)
